Assay results reported in publication PMC12749166, “Fragment-based drug design of a bacterial kinase inhibitor capable of increasing the antibiotic sensitivity of clinical isolates” (Communications Chemistry, 2025).
Converted amounts (≈) assume the structure as drawn. Read-outs that look alike come from different tables or passages of the source.

Columns and labels:
APH(2”)-IVa [1] = molecular target: T1, APH(2”)-IVa (Enterococcus casseliflavus, UniProt O68183); assay: biochemical; format: binding; conditions: read-out: ΔTm (°C)
Description: Thermal shift assays were performed using an RTqPCR machine Mx3005P (Stratagene) in 96-well plates (Thermo-Fast low Profile, ThermoScientific) by mixing the protein at 5 µM, SYPRO® Orange (Sigma Aldrich) at […], and fragments at 500 µM. Fluorescence was followed with Cy3 and SYAL filters. Denaturation curves were collected using MxPro-Mx3005P v4.10 software and analyzed using the implemented version of wTSA-CRAFT[36].

[2] = system: P. aeruginosa clinical isolates; assay: MIC by broth micro-dilution; format: cell-based
S. aureus C0032 [3] = assay: MIC by broth micro-dilution; format: cell-based; conditions: S. aureus C0032, aph(3')-IIIa ant(6)
P. aeruginosa C0307 = assay: Checkerboard assay of 83 with kanamycin A; format: cell-based; conditions: for MIC of kanamycin A: [83] 0 µg mL^−1, 18 h at 37 °C; for checkerboard well reading (growth): 83 0 µg.mL-1
S. aureus C0032 [4] = assay: Checkerboard assay of 83 with kanamycin A; format: cell-based; conditions: for checkerboard well reading (growth): Supp. Figure 3 C, 83 0 µg.mL-1
APH(2”)-IVa [5] = molecular target: T1, APH(2”)-IVa; assay: biochemical; conditions: Ki (µM), inhibition constant, ATP-competitive; 0-2 mM MgATP, 100 µM kanamycin A, global fitting
APH(2”)-IVa [6] = molecular target: T1, APH(2”)-IVa
[7] = Pseudomonas aeruginosa, P. aeruginosa C0214, aph(3')-IIb, read-out: MIC
[8] = Pseudomonas aeruginosa, P. aeruginosa C0307, aph(3')-IIb, read-out: MIC
[9] = Staphylococcus aureus, read-out: MIC

T1 sequence (O68183 1-301): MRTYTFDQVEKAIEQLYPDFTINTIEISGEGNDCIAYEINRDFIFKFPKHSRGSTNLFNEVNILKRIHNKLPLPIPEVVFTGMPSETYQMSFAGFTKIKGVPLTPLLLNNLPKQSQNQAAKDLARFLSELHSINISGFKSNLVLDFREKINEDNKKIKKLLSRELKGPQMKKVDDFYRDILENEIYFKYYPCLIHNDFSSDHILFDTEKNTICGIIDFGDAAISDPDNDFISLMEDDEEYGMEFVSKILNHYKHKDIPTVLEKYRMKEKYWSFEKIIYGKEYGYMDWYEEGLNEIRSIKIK

Q: How did the ΔTm at 500 µM (APH(2”)-IVa [1]) turn out when `Nc1cc(N2CCC(C(=O)N3CCCCC3)CC2)c(Cl)cn1` [Compound 28] was run?
A: The ΔTm at 500 µM was -1.78 °C.

Q: For `Nc1ccc(Br)cn1` [Compound 1], which ΔTm at 500 µM (APH(2”)-IVa [1]) is on record?
A: Its ΔTm at 500 µM is 0.5 °C.

Q: What does the source list for kanamycin A [reference compound]?
A: MIC ([2]; P. aeruginosa 1676, aph(3')-IIb): 128 µg/mL; MIC ([2]; P. aeruginosa 1761, aph(3')-IIb): 128 µg/mL; MIC ([2]; P. aeruginosa 1766, aph(3')-IIb): 128 µg/mL; MIC ([2]; P. aeruginosa 1781, aph(3')-IIb): 512 µg/mL; MIC ([2]; P. aeruginosa 1869, aph(3')-IIb aac(6')-Ib3): 1024 µg/mL; MIC ([2]; P. aeruginosa C0214, aph(3')-IIb): 256 to 512 µg/mL; MIC ([2]; P. aeruginosa C0307, aph(3')-IIb): 64 to 128 µg/mL; MIC ([2]; P. aeruginosa C0307, aph(3')-IIb, listed as Kanamycin A): 64 to 128 µg/mL; MIC (S. aureus C0032 [3]): 4096 µg/mL; MIC of kanamycin A (P. aeruginosa C0307; 0 µg mL^−1 imipenem): 64 µg/mL; MIC of kanamycin A (P. aeruginosa C0307; 0.05 µg mL^−1 imipenem): 64 µg/mL; checkerboard well reading (growth) (P. aeruginosa C0307; Supp. Figure 3 A, kanamycin A 2 µg.mL-1): 1.208; checkerboard well reading (growth) (P. aeruginosa C0307; Supp. Figure 3 A, kanamycin A 4 µg.mL-1): 1.193; checkerboard well reading (growth) (P. aeruginosa C0307; Supp. Figure 3 A, kanamycin A 8 µg.mL-1): 1.188; checkerboard well reading (growth) (P. aeruginosa C0307; Supp. Figure 3 A, kanamycin A 16 µg.mL-1): 1.223; checkerboard well reading (growth) (P. aeruginosa C0307; Supp. Figure 3 A, kanamycin A 32 µg.mL-1): 1.192; checkerboard well reading (growth) (P. aeruginosa C0307; Supp. Figure 3 A, kanamycin A 64 µg.mL-1): 0.162; checkerboard well reading (growth) (P. aeruginosa C0307; Supp. Figure 3 A, kanamycin A 128 µg.mL-1): 0.039; checkerboard well reading (growth) (P. aeruginosa C0307; Supp. Figure 3 B, kanamycin A 2 µg.mL-1): 1.210; checkerboard well reading (growth) (P. aeruginosa C0307; Supp. Figure 3 B, kanamycin A 4 µg.mL-1): 1.193; checkerboard well reading (growth) (P. aeruginosa C0307; Supp. Figure 3 B, kanamycin A 8 µg.mL-1): 1.143; checkerboard well reading (growth) (P. aeruginosa C0307; Supp. Figure 3 B, kanamycin A 16 µg.mL-1): 1.167; checkerboard well reading (growth) (P. aeruginosa C0307; Supp. Figure 3 B, kanamycin A 32 µg.mL-1): 1.151; checkerboard well reading (growth) (P. aeruginosa C0307; Supp. Figure 3 B, kanamycin A 64 µg.mL-1): 0.174; checkerboard well reading (growth) (P. aeruginosa C0307; Supp. Figure 3 B, kanamycin A 128 µg.mL-1): 0.043; MIC of kanamycin A (S. aureus C0032 [4]; 0.125 µg mL^−1 imipenem, [83] 0 µg mL^−1, 18 h at 37 °C): 4096 µg/mL; checkerboard well reading (growth) (S. aureus C0032 [4]; kanamycin A 2 µg.mL-1): 0.337; checkerboard well reading (growth) (S. aureus C0032 [4]; kanamycin A 4 µg.mL-1): 0.322; checkerboard well reading (growth) (S. aureus C0032 [4]; kanamycin A 8 µg.mL-1): 0.304; checkerboard well reading (growth) (S. aureus C0032 [4]; kanamycin A 16 µg.mL-1): 0.292; checkerboard well reading (growth) (S. aureus C0032 [4]; kanamycin A 32 µg.mL-1): 0.272; checkerboard well reading (growth) (S. aureus C0032 [4]; kanamycin A 64 µg.mL-1): 0.258; checkerboard well reading (growth) (S. aureus C0032 [4]; kanamycin A 128 µg.mL-1): 0.312

Q: With `[H]/N=C(/N)N[C@H]1[C@H](O)[C@@H](O)[C@H](O[C@@H]2O[C@@H](C)[C@](O)(C=O)[C@H]2O[C@@H]2O[C@@H](CO)[C@H](O)[C@@H](O)[C@@H]2NC)[C@@H](N/C(N)=N\[H])[C@@H]1O` [Streptomycin] as the molecule, how does the MIC [2, 7] read?
A: The MIC was 32 µg/mL (≈ 55 µM).

Q: What about the MIC [2, 8] of the same molecule?
A: The MIC was 64 µg/mL (≈ 110 µM).

Q: And the MIC (S. aureus C0032 [3]; [9])?
A: The MIC was 2 to 4 µg/mL (≈ 3.44 to 6.88 µM).

Q: With `CN(C)C(=O)c1c[nH]c2ncc(Cl)cc12` [Compound 82] as the molecule, how does the Ki (APH(2”)-IVa [5]) read?
A: The Ki was 19.7 µM.

Q: For `NNC(=O)c1cc(NC2CC2)ncc1Cl` [Compound 36-6], which Ki (APH(2”)-IVa [5]) is on record?
A: Its Ki is 11.4 µM.

Q: How did the ΔTm at 500 µM (APH(2”)-IVa [1]) turn out when `Nc1ncc(Cl)cc1S(=O)(=O)N1CCCNCC1` [Compound 17] was run?
A: The ΔTm at 500 µM was 1.05 °C.

Q: How did the ΔTm at 500 µM (APH(2”)-IVa [1]) turn out when `Clc1ccc(NCCc2ccccc2)nc1` [Compound 11] was run?
A: Its ΔTm at 500 µM is 0.48 °C.

Q: For `Cn1nccc1C1CCCN(c2cc(N)ncc2Cl)C1` (stereo not drawn) [Compound 27], which ΔTm at 500 µM (APH(2”)-IVa [1]) is on record?
A: The ΔTm at 500 µM was -1.45 °C.

Q: For `Nc1ccccn1` [Compound F68], which ΔTm at 500 µM (APH(2”)-IVa [1]) is on record?
A: Its ΔTm at 500 µM is -0.27 °C.

Q: And the Inhibition (APH(2”)-IVa [6])?
A: The Inhibition was 11%.

Q: What about the Ki (APH(2”)-IVa [5]) of the same molecule?
A: Its Ki is 260 µM.

Q: For `O=C(Nc1ccc(Br)cc1)Nc1ccc(Br)cn1` [Compound 7], which ΔTm at 500 µM (APH(2”)-IVa [1]) is on record?
A: Its ΔTm at 500 µM is -0.26 °C.

Q: Which ΔTm at 500 µM (APH(2”)-IVa [1]) does the source give for `Nc1cc(N2CCOC(c3ccccc3)C2)c(Cl)cn1` (stereo not drawn) [Compound 30] here?
A: The ΔTm at 500 µM was -1.22 °C.

Q: `C[C@@H](O)[C@H]1C(=O)N2C(C(=O)O)=C(S[C@@H]3CN[C@H](C(=O)Nc4cccc(C(=O)O)c4)C3)[C@H](C)[C@H]12` [Ertapenem] was tested. Which MIC [2, 7] did it give?
A: The MIC was over 2 µg/mL.

Q: And the MIC [2, 8]?
A: The MIC was 8 to 16 µg/mL (≈ 16.8 to 33.6 µM).

Q: And the MIC (S. aureus C0032 [3]; [9])?
A: Its MIC is 4 µg/mL (≈ 8.41 µM).

Q: `O=C(NCCc1ccccc1)c1cc(NC2CC2)ncc1Cl` [Compound 36-1] was tested. Which Ki (APH(2”)-IVa [5]) did it give?
A: Its Ki is 66.1 µM.

Q: How did the “Inhibition relative to F68” value (APH(2”)-IVa [6]; 500 µM, times more inhibition than F68) turn out when `Nc1ccc(Cl)cn1` [Compound F69] was run?
A: Its value is 6.2 times.

Q: For `C[C@@H](O)[C@H]1C(=O)N2C(C(=O)O)=C(SCCN=CN)C[C@H]12` [Imipenem], which MIC [2, 7] is on record?
A: Its MIC is over 2 µg/mL.

Q: And the MIC [2, 8]?
A: Its MIC is 2 µg/mL (≈ 6.68 µM).

Q: With `O=C(NCCc1ccc(O)cc1)c1cc(NC2CC2)ncc1Cl` [Compound 36-2] as the molecule, how does the Ki (APH(2”)-IVa [5]) read?
A: Its Ki is 11.9 µM.

Q: How did the ΔTm at 500 µM (APH(2”)-IVa [1]) turn out when `Nc1ncc(Cl)cc1S(=O)(=O)NCCCN1CCC(O)CC1` [Compound 25] was run?
A: The ΔTm at 500 µM was 0.6 °C.

Q: With `CN(C)CCNC(=O)c1cc(NC2CC2)ncc1Cl` [Compound 36-7] as the molecule, how does the Ki (APH(2”)-IVa [5]) read?
A: Its Ki is 18.6 µM.

Q: Which Ki (APH(2”)-IVa [5]) does the source give for `Clc1cnc2[nH]ccc2c1-c1ccsc1` [Compound 86] here?
A: Its Ki is 1.75 µM.

Q: For `O=C(NCc1ccccc1)c1cc(NC2CC2)ncc1Cl` [Compound 36-4], which Ki (APH(2”)-IVa [5]) is on record?
A: Its Ki is 79.1 µM.

Q: `Nc1ncc(Cl)cc1S(=O)(=O)N1CCCC(N)C1` (stereo not drawn) [Compound 16] was tested. Which ΔTm at 500 µM (APH(2”)-IVa [1]) did it give?
A: Its ΔTm at 500 µM is 1.7 °C.

Q: `O=C(O)CNC(=O)Nc1ccc(Br)cn1` [Compound 8] was tested. Which ΔTm at 500 µM (APH(2”)-IVa [1]) did it give?
A: The ΔTm at 500 µM was -0.25 °C.

Q: `O=C(Nc1ccc(O)cc1)Nc1ccc(F)cc1` [Compound 37] was tested. Which ΔTm at 500 µM (APH(2”)-IVa [1]) did it give?
A: The ΔTm at 500 µM was 1.17 °C.
